We go through one molecule from patent publication US20060140872A1, “Novel signaling pathway for the production of inglammatory pain and neuropathy” (KOWA CO., LTD., priority 2003, published 2006).

This assay has as its system allergic contact dermatitis (picryl chloride-induced dermatitis). As to the kind of experiment: Mouse model of picryl chloride-induced dermatitis (auricle thickness). It is filed as in vivo, mouse (female BALB/C). Conditions: applied on left auricle 1 hour before induction; thickness 24 hours after induction; dose not given; FIG. 2.

As for `COc1cccc(-c2cc(=O)c3ccccc3o2)c1N` [PD98059, 2-(2-amino-3-methoxyphenyl)-4-oxo-4H-[1]benzopyran], the “suppressive action for allergic contact dermatitis (difference in auricle thickness)” value is listed as “exhibited suppressive action for allergic contact dermatitis”.
